# Measured values reported in ChEMBL document CHEMBL2311391, “Novel inhibitors of protein arginine deiminase with potential activity in multiple sclerosis animal model” (J Med Chem, 2013).
# Tests used:
# [1] = species on record: Mus musculus; experiment: Toxicity in mouse at 20 mg as single dose; assay type: organism-based; settings: in vivo
# [2] = species on record: Mus musculus; experiment: Antiinflammatory activity against MOG peptide-induced experimental autoimmune encephalomyelitis mouse model assessed as CD3 marker measured on day 24 after 2 weeks of treatment (reference value: 4.8 +/- 0.19 /mm'2); assay type: functional
# [3] = species on record: Mus musculus; experiment: Toxicity in mouse at 10 mg for 5 days; assay type: organism-based; settings: in vivo, 120 h
smiles,measurement,setting,value
CC1(C)NC(=O)N(CN2CCNCC2)C1=O,Activity,[1],Non-toxic
same,Activity,[2],3.8 mm2
same,Activity,[3],Non-toxic
